Results from patent US12410211B2, “V1A receptor partial agonist and method of use” (PharmaIN Corporation, priority 2020, dated 2025).
Where a SMILES comes first, the peptide text is derived from it. Bridges are numbered along the chain shown (N, C = ends).

Legend:
[1] = Therapeutic index (NOAEL/NOEL): paleness, lethargy, ataxia observation in Sprague-Dawley rats (Example 7); assay type: in vivo
Procedure, shortened: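 Male Sprague-Dawley rats, 8–10 weeks, under isoflurane (n=3 or 6), dosed IV or SC with test articles. Paleness judged by ear colour beside untreated controls; lethargy and ataxia scored by observation. Index expressed as NOAEL/NOEL ratio.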

[2] = Telemetric evaluation of portal vein pressure in rats with bile duct ligation (Example 9); assay type: in vivo, Sprague Dawley rats; conditions: BDL rats n = 4, 41 μg/kg intravenous bolus
Description: For this study, animals (Sprague Dawley rats (240-300 g at surgery from Charles River Laboratory) were maintained at room temperatures (20 to 22° C.) with 14-hour light, 10-hour dark cycle when not performing study procedures. The mean portal vein pressure (MPVP) reduction efficacy of a peptide of Formula ([…] [SEQ ID NO. 13]; Mpa and C are disulfide bonded; represented as TA-1) was compared to terlipressin in telemetered male with Bile Duct Ligation (BDL) and Sham surgery. On Study Day 1, rats received bile duct ligation surgery and telemetry implantation. The BDL group (n=4) had two stands of silk suture tightened and tied to occlude the bile duct; the sham group (n=3) had sutures loosely tied around the bile duct so that no occlusion occurred. After recovery from surgery, all rats had their portal vein pressure monitored continuously via telemetry until Day 22. […] Terlipressin was administered through intravenous bolus into a lateral tail vein on Day 20 and 21. All animals were dosed under manual restraint. Systolic portal vein pressure and diastolic portal vein pressure were measured to calculate the Mean Portal Vein Pressure ([…] was analyzed by averaging 5 minute intervals for the first 4 hours after dose and thereafter averaging 1 hour intervals after dose until 24 hours. […] Telemetric evaluation of […] [SEQ ID NO. 13] and Terlipressin on portal vein pressure in rats with bile duct ligation. The animal room temperatures were set to maintain 20 to 22° C. A 14-hour light, 10-hour dark cycle was implemented unless interrupted by study procedures. Efficacy was assessed by evaluating mean portal vein pressure (MPVP) at different concentrations of Formula 1 and Terlipressin in telemetered male Sprague Dawley rats (240-300 g at surgery from Charles River Laboratory) with Bile Duct Ligation (BDL) and Sham surgery. On Study Day 1, rats received bile duct ligation surgery and telemetry implantation. The BDL group (n=4) had two stands of silk suture tightened and tied to occlude the bile duct; the sham group (n=3) had sutures loosely tied around the bile duct so that no occlusion occurred. After recovery from surgery, all rats had their portal vein pressure monitored continuously via telemetry until Day 22. […] Formula 1 was administered at different concentrations subcutaneously on Day 15 to 19, and Day 23; Terlipressin was administered through intravenous bolus into a lateral tail vein on Day 20 and 21. All animals were dosed under manual restraint. Systolic portal vein pressure and diastolic portal vein pressure were measured to calculate the Mean Portal Vein Pressure ([…] was analyzed by averaging 5 minute intervals for the first 4 hours after dose and thereafter averaging 1 hour intervals after dose until 24 hours.

V2 = V2 (Homo sapiens, UniProt P30518); conditions: cited from earlier work
[3] = Acute diuretic activity of Terlipressin, Tolvaptan and combinations in Wistar rats (Example 5); assay type: in vivo
Description: The animals were then treated with Terlipressin (Bachem, Torrance CA), Tolvaptan (Fisher Scientific, Waltham, MA) and combination of the two compounds at various concentrations administered subcutaneously (n=4). Test articles were Terlipressin 0.05 mg/Kg and 0.15 mg/Kg, Tolvaptan 0.3 mg/Kg, and 1.0 mg/Kg, Terlipressin 0.05 mg/Kg+Tolvaptan 0.3 mg/Kg, Terlipressin 0.05 mg/Kg+Tolvaptan 1.0 mg/Kg, Terlipressin 0.15 mg/Kg+Tolvaptan 0.3 mg/Kg, and Terlipressin 0.15 mg/Kg+1.0 mg/Kg. Furosemide (Fisher Scientific, Waltham, MA) was used as positive control and dosed at 20 mg/kg via oral gavage. Control dosed vehicle group (9% tween 80; Fisher Scientific, Waltham MA) administered subcutaneously was included and the resulting data was subtracted from individual test article data. After the dose, animals were placed in the metabolic cage (Tecniplast; Province of Varese, Italy) and urine was collected and measured at 2, 4 and 8 hours after the dosing of test articles. Urine volumes were divided by the body weight (pre-dose) times 100 to express in ml/100 g body weight.

Sequence of V2 (P30518 whole entry): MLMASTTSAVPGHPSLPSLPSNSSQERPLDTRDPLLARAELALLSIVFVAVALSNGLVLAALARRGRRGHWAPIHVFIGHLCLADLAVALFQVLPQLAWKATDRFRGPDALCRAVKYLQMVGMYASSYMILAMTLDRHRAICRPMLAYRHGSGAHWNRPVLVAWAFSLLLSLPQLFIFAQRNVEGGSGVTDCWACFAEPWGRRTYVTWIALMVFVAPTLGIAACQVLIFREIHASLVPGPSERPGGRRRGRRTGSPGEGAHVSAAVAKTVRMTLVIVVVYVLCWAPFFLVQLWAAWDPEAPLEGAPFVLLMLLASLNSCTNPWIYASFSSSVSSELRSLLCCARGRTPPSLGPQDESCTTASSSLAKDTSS

**Q.** For `NCCCC[C@H](NC(=O)[C@@H]1CCCN1C(=O)[C@@H]1CSSC[C@H](NC(=O)CNC(=O)CNC(=O)CN)C(=O)N[C@@H](Cc2ccc(O)cc2)C(=O)N[C@@H](Cc2ccccc2)C(=O)N[C@@H](CCC(N)=O)C(=O)N[C@@H](CC(N)=O)C(=O)N1)C(=O)NCC(N)=O` [Terlipressin, reference compound] (H-GGGCYFQNCPKG-NH2; disulfide 4-9), which “Paleness (Duration, hrs; SD)” value ([1]; I.V., at the Marked adverse effect dose) is on record?
**A.** The value was “(3.56 ± 0.06) hrs”.

**Q.** What about the “Paleness (Duration, hrs; SD)” value ([1]; I.V., at the Mild adverse effect dose) of the same molecule?
**A.** Its value is “(2.82 ± 0.03) hrs”.

**Q.** What about the “Paleness (Duration, hrs; SD)” value ([1]; I.V., at the NOAEL dose) of the same molecule?
**A.** The value was “(1.3 ± 0.05) hrs”.

**Q.** And the “Paleness (Duration, hrs; SD)” value ([1]; I.V., at the NOEL dose)?
**A.** The value was “None observed”.

**Q.** What about the “Highest dose with no-observed effect level or paleness (NOEL)” value ([1]; I.V., rat) of the same molecule?
**A.** Its value is 0.005 mg/kg.

**Q.** What about the NOAEL at 24 h ([1]; male, Sprague-Dawley, in vivo, iv, I.V., rat, read-out: Highest dose with no-observed adverse effect level without lethargy (NOAEL)) of the same molecule?
**A.** Its NOAEL at 24 h is 0.05 mg/kg.

**Q.** What about the “Marked adverse effect (Lowest dose first showed Ataxia)” value ([1]; rat, in vivo, iv) of the same molecule?
**A.** The value was 1.5 mg/kg.

**Q.** And the “Mild adverse effect (Lowest dose first showed Lethargy)” value ([1]; rat, in vivo, iv)?
**A.** The value was 0.15 mg/kg.

**Q.** And the “Percent decrease (%) in Mean Portal Vein Pressure (MPVP) from BDL baseline prior to treatment” value (from here on “Percent decrease (%)”) ([2]; Time 1 hr)?
**A.** The value was −23%.

**Q.** And the “Percent decrease (%)” value ([2]; Time 4 hr)?
**A.** Its value is 11.3%.

**Q.** What about the “Percent decrease (%)” value ([2]; Time 7 hr) of the same molecule?
**A.** The value was 10.8%.

**Q.** What about the “Percent decrease (%)” value ([2]; Time 20 hr) of the same molecule?
**A.** The value was 7.3%.

**Q.** And the “V2 or anti-diuretic activity” value (V2)?
**A.** Its value is 3%.

**Q.** And the “Average mL of Urine per 100 gram body weight 8 hours cumulative (n = 4) minus Vehicle group (Tween 80); (SEM)” value ([3]; Terlipressin 0.05 mg/Kg subcutaneous)?
**A.** The value was 0.70 (0.17) mL per 100 gram body weight.

**Q.** And the “Average mL of Urine per 100 gram body weight 8 hours cumulative (n = 4) minus Vehicle group (Tween 80); (SEM)” value ([3]; Terlipressin 0.15 mg/Kg subcutaneous)?
**A.** The value was 1.32 (0.23) mL per 100 gram body weight.
